The record followed here is US6469023B1, “Heterocyclic spiro-derivative” (Daiichi Pharmaceutical Co., Ltd., priority 1995, dated 2002).

Common to all, as to assay: Antibacterial activity, standard method of Japan Society of Chemotherapy (MIC)
Common to all, as to type: cell-based

One assay deals with Ps. aeruginosa, 32121. The method, then:
(§1) The following Inventive and Reference Examples are provided to further illustrate the present invention, but not by way of limitation. The antibacterial activity of optically active compounds of interest was tested in accordance with the standard method designated by Japan Society of Chemotherapy. The results are shown in Table 1 as MIC (μg/ml). [drawing 10]

Assay [1] deals with Ps. maltophilia, IID-1275. As for the experimental part: as §1
A further assay has as its system E. coli, NIHJ. The method, then:
as §1

The next assay deals with Pr. mirabilis, IFO-3849. The method, then: as §1
The subject of another assay is S. aureus, 209P. The method, then:
as §1

For another assay, the system named is Str. pyogenes, G-36. The method, then: as §1
For assay [2], the system named is Str. faeccalis, ATCC-19433. As for the experimental part:
as §1

A further assay deals with Pr. vulgaris, 08601. As for the experimental part:
as §1

Another assay relates to Ser. marcescens, 10100. As for the experimental part: as §1
A further assay deals with S. epidermidis, 56500. As for the experimental part:
as §1

The test system of a further assay is Ps. aeruginosa, 32104. As for the experimental part:
as §1

The subject of the next assay is S. flexneri, 2A 5503. The method, then:
as §1

A further assay has as its system S. aureus, 87037. The method, then: as §1
The mark [3] stands for this setting: Pseudomonas aeruginosa, read-out: MIC.
Where [4] appears, read: Stenotrophomonas maltophilia, IID1275, Ps. maltophilia, read-out: MIC.
Where [5] appears, read: Escherichia coli, read-out: MIC.
[6] abbreviates: Proteus mirabilis, IFO3849, Pr. mirabilis, read-out: MIC.
Setting [7] is: Staphylococcus aureus, read-out: MIC.
Setting [8] is: Proteus vulgaris, 08601, Pr. vulgaris, read-out: MIC.
[9] abbreviates: Serratia marcescens, read-out: MIC.
The mark [10] stands for this setting: Pseudomonas aeruginosa, 32104, Ps. aeruginosa, read-out: MIC.
Setting [11] is: Shigella flexneri, 2A5503, read-out: MIC.
Where [12] appears, read: Streptococcus pyogenes, G36, Str. pyogenes, read-out: MIC.
Setting [13] is: Staphylococcus epidermidis, 56500, S. epidermidis, read-out: MIC.
[14] abbreviates: Staphylococcus aureus, 87037, S. aureus, read-out: MIC.

In brackets after ≈: the same amount, converted by molar mass. Read-outs that look alike come from different tables or passages of the source. Where only a bound is given, the exact number is not on record here.

By MIC is commonly meant the lowest concentration found to suppress growth. Consider `Cc1c(N2CCC3(CC3N)C2)c(F)cc2c(=O)c(C(=O)O)cn([C@@H]3C[C@@H]3F)c12` (single isomer, unassigned) [Example 6], for which the MIC with Ps. aeruginosa, 32121 (setting [3]) was 0.025 µg/mL (≈ 0.0642 µM); in [1] (setting [4]), 0.05 µg/mL (≈ 0.128 µM); in the assay with E. coli, NIHJ (setting [5]) it was at most 3 ng/mL; in the assay with Pr. mirabilis, IFO-3849 (setting [6]), 0.013 µg/mL (≈ 0.0334 µM); with S. aureus, 209P (setting [7]), at most 3 ng/mL; in the assay on Str. pyogenes, G-36 (Str. pyogenes), 0.013 µg/mL (≈ 0.0334 µM). The MIC is 0.05 µg/mL (≈ 0.128 µM) in [2] (read-out: MIC); at most 0.003 µg/mL in the assay on Pr. vulgaris, 08601 (setting [8]); 0.025 µg/mL (≈ 0.0642 µM) with Ser. marcescens, 10100 (setting [9]); 0.013 µg/mL (≈ 0.0334 µM) in the assay on S. epidermidis, 56500 (S. epidermidis); 0.05 µg/mL (≈ 0.128 µM) in the assay on Ps. aeruginosa, 32104 (setting [10]); at most 3 ng/mL with S. flexneri, 2A 5503 (setting [11]). Moreover, in the assay with S. aureus, 87037 (S. aureus), the MIC was 0.10 µg/mL (≈ 0.257 µM).
`Cc1c(N2CCC3(CC3N)C2)c(F)cc2c(=O)c(C(=O)O)cn([C@@H]3C[C@@H]3F)c12` (single isomer, unassigned) [Example 7]: the MIC is 0.025 µg/mL (≈ 0.0642 µM) against Ps. aeruginosa, 32121; 0.025 µg/mL (≈ 0.0642 µM) in assay [1] (Ps. maltophilia); “≦0.003 μg/ml” in the assay with E. coli, NIHJ; 0.013 µg/mL (≈ 0.0334 µM) in the assay with Pr. mirabilis, IFO-3849 (Pr. mirabilis); “≦0.003 μg/ml” in the assay with S. aureus, 209P; 0.006 µg/mL (≈ 0.0154 µM) with Str. pyogenes, G-36 (Str. pyogenes). The MIC in assay [2] was 0.025 µg/mL (≈ 0.0642 µM); with Pr. vulgaris, 08601 (Pr. vulgaris), “≦0.003 μg/ml”; against Ser. marcescens, 10100 it was 0.025 µg/mL (≈ 0.0642 µM); with S. epidermidis, 56500 (S. epidermidis), 0.006 µg/mL (≈ 0.0154 µM); in the assay on Ps. aeruginosa, 32104 (Ps. aeruginosa), 0.05 µg/mL (≈ 0.128 µM); in the assay on S. flexneri, 2A 5503 it was “≦0.003 μg/ml”. For the same molecule, the MIC in the assay on S. aureus, 87037 (S. aureus) was determined as 0.25 µg/mL (≈ 0.642 µM).
Regarding `Nc1c(F)c(N2CCC3(CC3N)C2)c(F)c2c1c(=O)c(C(=O)O)cn2[C@@H]1C[C@@H]1F` (single isomer, unassigned) [Example 4], the MIC against Ps. aeruginosa, 32121 was 0.025 µg/mL (≈ 0.0612 µM); in [1] (Ps. maltophilia), 0.025 µg/mL (≈ 0.0612 µM); against E. coli, NIHJ, “≦0.003 μg/ml”; in the assay with Pr. mirabilis, IFO-3849 (Pr. mirabilis), 0.025 µg/mL (≈ 0.0612 µM); with S. aureus, 209P, “≦0.003 μg/ml”; in the assay with Str. pyogenes, G-36 (Str. pyogenes), 0.013 µg/mL (≈ 0.0318 µM). The minimal inhibitory concentration (MIC) was 0.025 µg/mL (≈ 0.0612 µM) in assay [2]; 0.013 µg/mL (≈ 0.0318 µM) in the assay on Pr. vulgaris, 08601 (Pr. vulgaris); 0.025 µg/mL (≈ 0.0612 µM) against Ser. marcescens, 10100; “≦0.003 μg/ml” with S. epidermidis, 56500 (S. epidermidis); 0.05 µg/mL (≈ 0.122 µM) against Ps. aeruginosa, 32104 (Ps. aeruginosa); “≦0.003 μg/ml” against S. flexneri, 2A 5503. Also, in the assay on S. aureus, 87037 (S. aureus), the MIC came out at 0.05 µg/mL (≈ 0.122 µM).
Take `Cc1c(N2CCC3(CC3N)C2)c(F)c(N)c2c(=O)c(C(=O)O)cn([C@@H]3C[C@@H]3F)c12` (single isomer, unassigned) [Example 5]: the minimal inhibitory concentration (MIC) is 0.025 µg/mL (≈ 0.0618 µM) in the assay on Ps. aeruginosa, 32121 (setting [3]); 0.05 µg/mL (≈ 0.124 µM) in assay [1] (setting [4]); at most 3 ng/mL in the assay on E. coli, NIHJ (setting [5]); 0.05 µg/mL (≈ 0.124 µM) in the assay on Pr. mirabilis, IFO-3849 (setting [6]); at most 3 ng/mL in the assay on S. aureus, 209P (setting [7]); 0.05 µg/mL (≈ 0.124 µM) with Str. pyogenes, G-36 (setting [12]). Further, the MIC in assay [2] (read-out: MIC) is 0.05 µg/mL (≈ 0.124 µM); with Pr. vulgaris, 08601 (setting [8]) it was 0.013 µg/mL (≈ 0.0321 µM); in the assay with Ser. marcescens, 10100 (setting [9]), 0.05 µg/mL (≈ 0.124 µM); in the assay with S. epidermidis, 56500 (setting [13]), 0.013 µg/mL (≈ 0.0321 µM); in the assay on Ps. aeruginosa, 32104 (setting [10]) it was 0.05 µg/mL (≈ 0.124 µM); in the assay with S. flexneri, 2A 5503 (setting [11]), at most 3 ng/mL. In addition, the MIC with S. aureus, 87037 (setting [14]) was determined as 0.1 µg/mL (≈ 0.247 µM).
Turning to `Nc1c(F)c(N2CCC3(CC3N)C2)c(F)c2c1c(=O)c(C(=O)O)cn2[C@@H]1C[C@@H]1F` (single isomer, unassigned) [Example 1], the MIC was 0.025 µg/mL (≈ 0.0612 µM) in the assay with Ps. aeruginosa, 32121 (setting [3]); 0.025 µg/mL (≈ 0.0612 µM) in assay [1] (setting [4]); at most 3 ng/mL in the assay on E. coli, NIHJ (setting [5]); 0.013 µg/mL (≈ 0.0318 µM) with Pr. mirabilis, IFO-3849 (setting [6]); at most 3 ng/mL in the assay with S. aureus, 209P (setting [7]); 0.013 µg/mL (≈ 0.0318 µM) in the assay on Str. pyogenes, G-36 (setting [12]). The MIC in assay [2] (read-out: MIC) was 0.025 µg/mL (≈ 0.0612 µM); against Pr. vulgaris, 08601 (Pr. vulgaris), 0.006 µg/mL (≈ 0.0147 µM); in the assay on Ser. marcescens, 10100 (setting [9]), 0.025 µg/mL (≈ 0.0612 µM); in the assay on S. epidermidis, 56500 (setting [13]), at most 0.003 µg/mL; in the assay with Ps. aeruginosa, 32104 (setting [10]), 0.025 µg/mL (≈ 0.0612 µM); in the assay on S. flexneri, 2A 5503 (setting [11]), at most 3 ng/mL. The MIC in the assay with S. aureus, 87037 (setting [14]) was 0.05 µg/mL (≈ 0.122 µM).
